Where two headings read alike, the source gives them in different places.
Tests used:
THP-1 cell NLRP3 = target: T1, THP-1 cell NLRP3 (Homo sapiens, UniProt Q96P20); test: Inhibitory activity against cell NLRP3 inflammasomes in THP-1 cells (LPS + nigericin, ELISA of supernatant); type: cell-based; details: PMA-differentiated THP-1 cells, LPS 500 ng/mL 3 h, compound 1 h, nigericin 30 min; human IL-10 (so in the source) in supernatant by ELISA
T1 construct: endogenous in cells; host or cells: THP-1 cells, PMA-differentiated, stimulated with LPS and nigericin
T1 sequence (Q96P20 whole entry): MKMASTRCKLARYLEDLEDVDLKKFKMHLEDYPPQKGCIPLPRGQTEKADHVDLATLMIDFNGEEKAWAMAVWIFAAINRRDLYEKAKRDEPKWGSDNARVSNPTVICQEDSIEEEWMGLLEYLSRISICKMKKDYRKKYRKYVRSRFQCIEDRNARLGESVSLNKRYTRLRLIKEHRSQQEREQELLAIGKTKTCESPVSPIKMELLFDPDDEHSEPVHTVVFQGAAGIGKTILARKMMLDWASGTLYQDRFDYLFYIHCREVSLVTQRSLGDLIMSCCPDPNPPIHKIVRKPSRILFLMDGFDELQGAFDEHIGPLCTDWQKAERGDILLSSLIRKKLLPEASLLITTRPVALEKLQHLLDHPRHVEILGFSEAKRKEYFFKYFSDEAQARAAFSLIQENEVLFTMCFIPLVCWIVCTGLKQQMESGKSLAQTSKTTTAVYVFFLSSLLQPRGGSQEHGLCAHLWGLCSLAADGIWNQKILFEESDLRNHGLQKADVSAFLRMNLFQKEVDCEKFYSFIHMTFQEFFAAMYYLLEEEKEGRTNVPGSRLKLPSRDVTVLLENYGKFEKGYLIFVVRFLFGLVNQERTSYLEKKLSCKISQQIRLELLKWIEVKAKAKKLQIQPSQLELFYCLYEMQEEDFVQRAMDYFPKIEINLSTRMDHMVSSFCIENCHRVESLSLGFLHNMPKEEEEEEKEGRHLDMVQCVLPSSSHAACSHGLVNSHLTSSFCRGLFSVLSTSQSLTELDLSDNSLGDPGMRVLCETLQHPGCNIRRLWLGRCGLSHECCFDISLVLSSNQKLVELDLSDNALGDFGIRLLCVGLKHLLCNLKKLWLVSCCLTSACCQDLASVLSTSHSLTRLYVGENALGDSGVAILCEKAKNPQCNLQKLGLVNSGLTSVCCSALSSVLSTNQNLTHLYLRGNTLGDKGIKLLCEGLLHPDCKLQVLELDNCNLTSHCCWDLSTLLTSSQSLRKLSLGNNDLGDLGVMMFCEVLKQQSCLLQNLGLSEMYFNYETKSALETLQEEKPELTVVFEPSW
Protocol: Experimental Example 1: Assay for Inhibitory Activity of Compounds Disclosed Herein Against Cell NLRP3 Inflammasomes
Test substances: The compounds of the present disclosure, prepared according to the methods described in the examples.
THP-1 is an immortalized human […] cell line.
Instrument: microplate reader (made by PE)
Assay Method: 1. THP-1 cells were cultured in 1640 complete medium (500 mL of 1640+56 mL of FBS+560 μL of 1000×P/S+2 μL of mercaptoethanol), and cells at passages 3-20 were used.
2. Culture plate coating: 100 μL of polylysine solution was added to a 96-well cell culture plate. After 30 min of incubation at 37° C., the solution was discarded, and the plate was washed with PBS twice for later use.
3. Induction of THP-1 differentiation: THP-1 cells were resuspended in an appropriate amount of complete medium containing 10 ng/mL PMA to form a cell suspension with a density of 5×10^5 cells/mL. The suspension was added to the 96-well plate at 100 μL/well, and the plate was incubated overnight in a 37° C. carbon dioxide cell incubator for 16 h.
4. Stimulation of THP-1: • a. Serum-free THP-1 culture medium containing LPS was added, with the final concentration being 500 ng/mL. The plate was incubated in a 37° C. carbon dioxide cell incubator for 3 h. • b. Mother liquors of the compounds to be tested with gradient concentrations were prepared with DMSO, added to the cells, and well mixed. Dilution was finally performed in a 1:1000 ratio. The plate was incubated in a 37° C. carbon dioxide cell incubator for 1 h. • c. Nigericin was added to each well, with the final concentration being […]. The plate was incubated in a carbon dioxide cell incubator at 37° C. for 30 min. • d. The medium in the wells was transferred to a new culture plate, and after 5 min of centrifugation at 3000 rpm, the supernatant was transferred to a new 96-well plate. • e. The content of human […] in the collected cell culture supernatant samples was determined with a commercial ELISA kit by following the instructions.

[1] = Stability in canine liver microsomes; type: in vitro ADME; details: canine liver microsomes 0.5 mg protein/mL, 1 μM test substance, β-NADPH 1 mM, 37° C.; for microsomal CLint at 1 μM / half-life at 1 μM: dog; for half-life at 1 μM: read-out: Canine t1/2
Protocol: (§1) Experimental Example 2: Evaluation of Stability of Compounds Disclosed Herein in Liver Microsomes
(§2) Composition of experimental incubation system:
(§3) An appropriate amount of the compound was precisely weighed out and dissolved in DMSO to prepare a 10.0 mM stock solution. The 10.0 mM stock solution was diluted with DMSO to 1.0 mM, and then diluted with phosphate buffer (containing 3 mM MgCl2) to prepare a 10 μM test substance working solution for later use (DMSO content in the reaction system: 0.1%).
(§4) An appropriate amount of β-NADPH was precisely weighed out and then prepared into a 5 mM β-NADPH working solution using phosphate buffer (containing 3 mM MgCl2) for later use.
(§5) (1) The liver microsomes (20 mg protein/mL) were taken out from a −80° C. freezer and pre-incubated on a 37° C. water bath thermostatic oscillator for 3 min to thaw for later use.
(§6) (2) A mixed solution of the incubation system (without β-NADPH) was prepared according to “composition of experimental incubation system” described above, and pre-incubated on a 37° C. water bath thermostatic oscillator for 2 min.
(§7) (3) Control group (without β-NADPH): 10 μL of phosphate buffer (containing 3 mM MgCl2) and 40 μL of the mixed solution of the incubation system in step (2) were taken and mixed, and the mixture was vortexed for 30 s and mixed well, resulting in a total reaction volume of 50 μL; the sample was duplicated. The mixture was placed on a 37° C. water bath thermostatic oscillator for incubation, and timing was started, with termination time points set at 0 min and 60 min.
(§8) (4) Sample group: 10 μL of the β-NADPH solution (5 mM) and 40 μL of the mixed solution in step (2) were taken and mixed, resulting in a total reaction volume of 50 μL; the mixture was vortexed for 30 s and mixed well; the sample was duplicated. The mixture was placed on a 37° C. water bath thermostatic oscillator for incubation, and timing was started, with termination time points set at 0 min, 5 min, 10 min, 20 min, 30 min, and 60 min.
(§9) (5) The mixture was vortexed for 5 min and then centrifuged at 4000 rpm for 10 min.
(§10) (6) 50 μL of the supernatant was taken and added to 150 μL of water, and the resulting mixture was vortexed and mixed well before LC/MS/MS analysis.
(§11) The half-life (t1/2) and clearance rate (CL) were calculated using the following first-order kinetic formula
(§12) Notes: k denotes the slope of the logarithm of the remaining amount of a compound vs. time, and Vd denotes apparent volume of distribution.

[2] = Stability in rat liver microsomes; type: in vitro ADME; details: rat liver microsomes 0.5 mg protein/mL, 1 μM test substance, β-NADPH 1 mM, 37° C.; for half-life at 1 μM: read-out: Rat t1/2
Protocol: as §1, §2, §3, §4, §5, §6, §7, §8, §9, §10, §11, §12

[3] = Pharmacokinetic study in mice; type: in vivo, female C57BL/6J mice; details: female, C57BL/6J, mouse, plasma; for clearance: read-out: Cl—obs iv (clearance rate) (converted); for Vd: read-out: Vss iv (distribution volume); for bioavailability: po 10 mg/kg vs iv 5 mg/kg, read-out: F% (absolute bioavailability); for Tmax: median, read-out: Tmax po (time to peak plasma concentration); for Cmax: read-out: Cmax po (peak concentration)
Protocol: (§13) The compounds were prepared into solutions using a mixed vehicle composed of 5% dimethyl sulfoxide, 20% (30% solutol), and 75% normal saline. The compound solutions were intragastrically administered to female C57BL/6J mice at a dose of 10 mg/kg, and the blood collection time points were: 15 min, 30 min, 1 h, 2 h, 4 h, 6 h, 8 h, and 24 h.
as §13, with “intravenously injected into” for “intragastrically administered to”, “5” for “10”, “were: 5 min,” for “were:”
The samples to be tested were taken out from a −80° C. freezer, naturally thawed at room temperature, and then vortexed for 5 min.
Plasma samples of 10 μL from different individuals were accurately pipetted into 1.5 mL centrifuge tubes.
900 μL of a 100 ng/mL internal standard working solution (a solution of tolbutamide in acetonitrile) was added, and the mixture was well mixed.
After 5 min of vortexing, centrifugation was performed at 12,000 rpm for 5 min.
50 μL of the supernatant was accurately pipetted into a 96-well plate to which water was added in advance at 150 μL/well.
After 5 min of vortexing, LC-MS/MS analysis was performed.
The results of the test substance concentrations were output by Analyst 1.6.3 of AB Sciex.
Parameters such as mean, standard deviation, and coefficient of variation (excluding those output directly by Analyst 1.6.3) were calculated using Microsoft Excel. PK parameters were calculated using WinNonlin Phenoix 8.2 software NCA (Tmax was a median).

[4] = iv 5 mg/kg, read-out: AUClast iv (0-24 h)
[5] = iv 5 mg/kg, read-out: tz1/2 iv (terminal half-life) (converted)
[6] = po 10 mg/kg, read-out: AUClast po (0-24 h)
[7] = po 10 mg/kg, read-out: tz1/2 po (terminal half-life) (converted)

SMILES | IC50 (THP-1 cell NLRP3) | Canine t1/2 [1] | microsomal CLint at 1 μM [2] | half-life at 1 μM [2] | AUC(0-t) [3, 4] | clearance ([3]; iv 5 mg/kg) | Vd ([3]; iv 5 mg/kg) | half-life [3, 5] | bioavailability [3] | Tmax ([3]; po 10 mg/kg) | AUC(0-t) [3, 6] | Cmax ([3]; po 10 mg/kg) | half-life [3, 7] | microsomal CLint at 1 μM [1] | half-life at 1 μM [1] | Rat t1/2 [2]
CC#Cc1ccc(-c2nnc(N[C@@H]3CCCN(C)C3)c(=O)n2C)c(O)c1 [Compound 27, (R)-3-(2-hydroxy-4-(prop-1-yn-1-yl)phenyl)-4-methyl-6-((1-methylpiperidin-3-yl)amino)-1,2,4-triazin-5(4H)-one] | 5.2 nM | →∞ | 6.2 µL/min/mg | 3.73 h | 6830 ng·h/mL | 11.8 mL/min/kg | 2.39 L/kg | 9.55 h | 77.7% | 0.25 h | 10900 ng·h/mL | 5520 ng/mL | 3.99 h | – | – | –
[2H]C([2H])([2H])N1CCC[C@@H](Nc2cc(C)c(-c3ccc(C#C)cc3O)nn2)C1 [Compound 84, (R)-5-ethynyl-2-(4-methyl-6-((1-(methyl-d3)piperidin-3-yl)amino)pyridazin-3-yl)phenol] | 0.2 nM | – | 4 µL/min/mg | 5.78 h | 5590 ng·h/mL | 14.8 mL/min/kg | 3.02 L/kg | 3.81 h | 92.7% | 0.5 h | 10400 ng·h/mL | 1910 ng/mL | 3.1 h | 4 µL/min/mg | 5.78 h | –
[2H]C([2H])([2H])N1CCC[C@@H](Nc2cc(C3CC3)c(-c3ccc(C#C)cc3O)nn2)C1 [Compound 85, (R)-2-(4-cyclopropyl-6-((1-(methyl-d3)piperidin-3-yl)amino)pyridazin-3-yl)-5-ethynylphenol] | 0.6 nM | – | 4.6 µL/min/mg | 5.02 h | 15100 ng·h/mL | 5.32 mL/min/kg | 1.85 L/kg | 5.55 h | 94.4% | 1 h | 29100 ng·h/mL | 3540 ng/mL | 4.26 h | 5.2 µL/min/mg | 4.45 h | –
C#Cc1ccc(-c2nnc(N[C@@H]3CCCN(CC)C3)cc2C)c(O)c1 [Compound 89, (R)-2-(6-((1-ethylpiperidin-3-yl)amino)-4-methylpyridazin-3-yl)-5-ethynylphenol] | 0.2 nM | – | 8 µL/min/mg | 2.88 h | – | – | – | – | – | – | – | – | – | 6.2 µL/min/mg | 3.73 h | –
C#Cc1ccc(-c2nnc(N[C@@H]3CCCN(CC)C3)c(=O)n2C)c(O)c1 [Compound 93, (R)-6-((1-ethylpiperidin-3-yl)amino)-3-(4-ethynyl-2-hydroxyphenyl)-4-methyl-1,2,4-triazin-5(4H)-one] | 1.4 nM | – | 5.6 µL/min/mg | 4.13 h | – | – | – | – | – | – | – | – | – | 5 µL/min/mg | 4.62 h | –
C#Cc1ccc(-c2nnc(N[C@@H]3CCCN(CCO)C3)nc2C)c(O)c1 [Compound 99, (R)-5-ethynyl-2-(3-((1-(2-hydroxyethyl)piperidin-3-yl)amino)-5-methyl-1,2,4-triazin-6-yl)phenol] | 0.7 nM | – | 3.2 µL/min/mg | 7.22 h | – | – | – | – | – | – | – | – | – | 6.6 µL/min/mg | 3.5 h | –
C#Cc1ccc(-c2nnc(N[C@@H]3CCCN(C)C3)cc2C(F)(F)F)c(O)c1 [Compound 114, (R)-5-Ethynyl-2-(4-trifluoromethyl-6-((1-methylpiperidin-3-yl)amino)pyridazin-3-yl)phenol] | 1.3 nM | – | 0.4 µL/min/mg | 57.8 h | – | – | – | – | – | – | – | – | – | 1 µL/min/mg | 23.1 h | –
C#Cc1ccc(-c2nnc(N[C@@H]3CCCN(C)C3)cc2C(F)F)c(O)c1 [Compound 115, (R)-2-(4-Difluoromethyl-6-((1-methylpiperidin-3-yl)amino)pyridazin-3-yl)-5-ethynylphenol] | 0.3 nM | – | 20.2 µL/min/mg | 1.14 h | – | – | – | – | – | – | – | – | – | 3.6 µL/min/mg | 6.42 h | –
C#Cc1ccc(-c2nnc(N[C@@H]3CCCNC3)cc2C2CC2)c(O)c1 [Compound 149, (R)-2-(4-cyclopropyl-6-(piperidin-3-ylamino)pyridazin-3-yl)-5-ethynylphenol] | 0.5 nM | →∞ | – | – | – | – | – | – | – | – | – | – | – | – | – | →∞

Source: patent US20260167637A1, “NLRP3 INFLAMMASOME INHIBITOR AND USE THEREOF” (TransThera Sciences (Nanjing), Inc., priority 2022, published 2026)
